# Assay results published in US8506984B2, “Therapeutic agent elution control process” (Cordis Corporation, priority 2006, dated 2013).
# Key:
# [1] = Drug concentration in liquid formulations (liquid chromatography / HPLC); format: physicochemical; details: Vitamin E TPGS excipient, water and ethanol (<2%) co-solvents
# Description: In accordance with exemplary embodiments of the present invention, a series of liquid formulations were developed for the local or regional delivery of water insoluble compounds such as sirolimus and its analogs, including CCI-779, ABT-578 and everolimus, through weeping balloons and catheter injection needles. […] These liquid formulations increase the apparent solubility of the pharmacologically active but water insoluble compounds by two to four orders of magnitude as compared to the solubility limits of the compounds in water. These liquid formulations rely on the use of a very small amount of organic solvents such as Ethanol (typically less than two percent) and a larger amount of safe amphiphilic (of or relating to a molecule having a polar, water soluble group attached to a non-polar, water insoluble […]) excipients such as polyethylene glycol (PEG 200, PEG 400) and vitamin E TPGS to enhance the solubility of the compounds. These liquid formulations of highly water insoluble compounds are stable and readily flowable at room temperature. Certain excipients, such as Vitamin E TPGS and BHT may be utilized to enhance the storage stability of sirolimus compounds through their anti-oxidation properties. […]
# [2] = tested on: human coronary artery smooth muscle cells; experiment: Proliferation of non-synchronized cultured human coronary artery smooth muscle cells stimulated with two percent fetal bovine serum; format: cell-based; details: for effect of added agent on anti-proliferative rapamycin dose response: added to rapamycin-treated cells
# Description: The multiple curves represent various concentrations of mycophenolic acid ranging from zero to one thousand nanomolar concentrations. […] This potentiation observed in cultured coronary artery smooth muscle cells preferably translates to an enhancement in anti-restenotic efficacy following vascular injury and a reduction in the required amount of either agent to achieve the desired anti-restenotic effect.
# FIG. 58 illustrates, in graphical format, the anti-proliferative activity of cladribine in non-synchronized cultured human coronary artery smooth muscle cells stimulated with two percent fetal bovine serum.
# The multiple curves represent various concentrations of cladribine ranging from zero to nine hundred nanomolar concentrations. […] As illustrated, the percent inhibition increases substantially as the dose of cladribine increases.
# [3] = tested on: human coronary artery smooth muscle cell; experiment: MTS cytotoxicity assay; format: cell-based; details: concentrations up to 30,000.00 nanomolar
# Description: Typically, a control is utilized to determine baseline toxicity.
# [4] = tested on: human coronary artery smooth muscle cells; experiment: Proliferation of synchronized cultured human coronary artery smooth muscle cells stimulated with two percent fetal bovine serum; format: cell-based; details: for effect of added agent on anti-proliferative rapamycin dose response: added to rapamycin-treated cells
# Description: (§1) The multiple curves represent various concentrations of topotecan ranging from zero to three hundred nanomolar concentrations.
# (§2) The multiple curves represent various concentrations of etoposide ranging from zero to eight hundred nanomolar concentrations.
# The multiple curves represent various concentrations of Panzem® ranging from zero to 100 micromolar concentrations.
# [5] = Porcine drug elution PK study of dual drug eluting stent; format: in vivo; details: after eight (8) days of implantation; single-layer sirolimus/cilostazol coating (FIG. 83), 100 μg BMA overcoat
# Description: Another critical parameter for the performance of the thrombus resistance of a device coated with cilostazol is the duration of the drug release from the coating. This is of particular significance in the two weeks after device implantation. In the porcine drug elution PK studies of the dual drug eluting coating, both cilostazol and sirolius were slowly released from the coating, resulting in a sustained drug release profile. The purpose of the porcine PK study is to assess the local pharmacokinetics of a drug eluting stent at a given implantation time. Normally three stents are implanted in three different coronary arteries in a pig for a given time point and then retrieved for total drug recovery analysis. The stents are retrieved at predetermined time points; namely, 1, 3 and 8 days. The stents are extracted and the total amount of drug remaining on the stents is determined by analysis utilizing HPLC (high performance liquid chromatography) for total drug amount. The difference between the original amount of drug on the stent and the amount of drug retrieved at a given time represents the amount of drug released in that period. The continuous release of drug into surrounding arterial tissue is what prevents the neointimal growth and restenosis in the coronary artery. A normal plot represents the percentage of total drug released (%, y-axis) vs. time of implantation (day, x-axis). […]
# [6] = In vitro release from sirolimus/cilostazol single layer stent coating; format: physicochemical; details: single-layer sirolimus/cilostazol coating (FIG. 83)
# cell viability = experiment: Cell viability assay; format: cell-based
# Description: as §1, §2
# [7] = tested on: human coronary artery smooth muscle cell; experiment: Human coronary artery smooth muscle cell proliferation, in vitro cell culture study (trichostatin A); format: cell-based
# Description: FIG. 51 is a graph of the inhibition of coronary artery smooth muscle cells by trichostatin A in a cell culture study.
# tumor cell lines = details: cited from earlier work
smiles,measurement,setting,value
CO[C@H]1C[C@@H]2CC[C@@H](C)[C@@](O)(O2)C(=O)C(=O)N2CCCC[C@H]2C(=O)O[C@H]([C@H](C)C[C@@H]2CC[C@@H](OC(=O)C(C)(CO)CO)[C@H](OC)C2)CC(=O)[C@H](C)/C=C(\C)[C@@H](O)[C@@H](OC)C(=O)[C@H](C)C[C@H](C)/C=C/C=C/C=C/1C [CCI-779],concentration in the final solution (HPLC assay),[1],15000 µg/mL
"Nc1nc(Cl)nc2c1ncn2[C@H]1C[C@H](O)[C@@H](CO)O1 [Cladribine, 2-chlorodeoxyadenosine]",effect of added agent on anti-proliferative rapamycin dose response,[2],potentiate the anti-proliferative activity of rapamycin
same,inhibition of human coronary artery smooth muscle cell proliferation,[2]; two percent fetal bovine serum,completely inhibits
"COc1cc2c(cc1O)CC[C@@H]1[C@@H]2CC[C@]2(C)[C@@H](O)CC[C@@H]12 [Panzem®, 2-methoxyestradiol]",human coronary artery smooth muscle cell survival (MTS),[3],do not reduce human coronary artery smooth muscle cell survival
same,effect of added agent on anti-proliferative rapamycin dose response,[4],increases the percent of inhibition of rapamycin alone
same,inhibition of human coronary artery smooth muscle cell proliferation in vitro,[4]; two percent fetal bovine serum,extremely effective inhibitor
"CO[C@H]1C[C@@H]2CC[C@@H](C)[C@@](O)(O2)C(=O)C(=O)N2CCCC[C@H]2C(=O)O[C@H]([C@H](C)C[C@@H]2CC[C@@H](O)[C@H](OC)C2)CC(=O)[C@H](C)/C=C(\C)[C@@H](O)[C@@H](OC)C(=O)[C@H](C)C[C@H](C)/C=C/C=C/C=C/1C [Rapamycin, rapamycin]",drug remaining in the drug coating,[5],~80%
"O=C1CCc2cc(OCCCCc3nnnn3C3CCCCC3)ccc2N1 [cilostazol, 6[4-(1-cyclohexyl-1H-tetrazol-5-yl)-butoxy]-3,4-dihydro-2-(1H)-quinolinone]",in vitro release,[6],~35%
same,drug remaining in the drug coating,[5],~80%
COc1cc([C@@H]2c3cc4c(cc3[C@@H](O[C@@H]3O[C@@H]5CO[C@@H](C)O[C@H]5[C@H](O)[C@H]3O)[C@H]3COC(=O)[C@H]23)OCO4)cc(OC)c1O [etoposide],effect of added agent on anti-proliferative rapamycin dose response,[2],potentiate the anti-proliferative activity of rapamycin
same,cytotoxicity in cell viability assay,cell viability; concentrations up to ten micromolar,non-cytotoxic
COc1c(C)c2c(c(O)c1C/C=C(\C)CCC(=O)O)C(=O)OC2 [mycophenolic acid],effect of added agent on anti-proliferative rapamycin dose response,[2],potentiates the anti-proliferative activity of rapamycin
CC[C@@]1(O)C(=O)OCc2c1cc1n(c2=O)Cc2cc3c(CN(C)C)c(O)ccc3nc2-1 [topotecan],cytotoxicity in cell viability assay,cell viability; concentrations up to one micromolar,non-cytotoxic
same,effect of added agent on anti-proliferative rapamycin dose response,[4],potentiate the anti-proliferative activity of rapamycin
CC(/C=C/C(=O)NO)=C\[C@@H](C)C(=O)c1ccc(N(C)C)cc1 [trichostatin A],inhibition of human coronary artery smooth muscle cell proliferation,[7],completely inhibit
same,IC50,[7]; read-out: anti-proliferative IC50,~6 nM
same,anti-proliferative IC50,tumor cell lines,low nM range
